Data: US4962111A (priority 1989, dated 1990)
≈ marks a conversion by molar mass, not a printed value. Like-named read-outs stand apart in the source and are kept apart here.

How the values were obtained:
Mycobacterium kansasii = experiment: microbe, parasite or virus in culture; format: cell-based; conditions: 99% (2 log) inhibition
[1] = tested on: BCG (Bacillus Calmette-Guerin, an attenuated Mycobacterium bovis); experiment: microbe, parasite or virus in culture; format: cell-based; conditions: Mycobacterium tuberculosis variant bovis BCG, pH 5.8, pH 5.8
[2] = tested on: Mycobacterium tuberculosis; experiment: microbe, parasite or virus in culture; format: cell-based; conditions: 99% (2 log) inhibition
[3] = tested on: Mycobacterium tuberculosis H37RV; conditions: cited from earlier work
M. bovis = conditions: cited from earlier work
other mycobacteria = conditions: background statement; cited from earlier work
[4] = tested on: Mycobacterium tuberculosis; conditions: background statement; cited from earlier work
[5] = background statement; cited from earlier work
tuberculosis = conditions: applied subcutaneously; cited from earlier work
[6] = Mycobacterium tuberculosis, pH 5.8, M. tb. BUR, read-out: MIC
[7] = Mycobacterium tuberculosis, pH 5.8, M. tb. CES, read-out: MIC
[8] = Mycobacterium tuberculosis, pH 5.8, M. tb. DOL, read-out: MIC
[9] = Mycobacterium tuberculosis, pH 5.8, M. tb. DOU, read-out: MIC
[10] = Mycobacterium tuberculosis, pH 5.8, M. tb. DUB, read-out: MIC
[11] = Mycobacterium tuberculosis, pH 5.8, M. tb. GLA, read-out: MIC
[12] = Mycobacterium tuberculosis, pH 5.8, M. tb. ING, read-out: MIC
[13] = Mycobacterium tuberculosis, pH 5.8, M. tb. LFL, read-out: MIC
[14] = Mycobacterium tuberculosis, pH 5.8, M. tb. MCQ, read-out: MIC
[15] = Mycobacterium tuberculosis, pH 5.8, M. tb. SMA, read-out: MIC
[16] = Mycobacterium tuberculosis, pH 5.8, M. tb. WOO, read-out: MIC
[17] = Mycobacterium tuberculosis, pH 5.8, M. tb. BAK, read-out: MIC

Compound	MIC (Mycobacterium kansasii; pH 5.8, M. kans. SCH) [mg/L]	MIC (Mycobacterium kansasii; pH 5.8, M. kans. SWK) [mg/L]	MIC [1] [mg/L]	MIC [2, 6] [mg/L]	MIC [2, 7] [mg/L]	MIC [2, 8] [mg/L]	MIC [2, 9] [mg/L]	MIC [2, 10] [mg/L]	MIC [2, 11] [mg/L]	MIC [2, 12] [mg/L]	MIC [2, 13] [mg/L]	MIC [2, 14] [mg/L]	MIC [2, 15] [mg/L]	MIC [2, 16] [mg/L]	MIC [2, 17] [mg/L]	further results
C=CCOC(=O)c1cnccn1 [Allyl Pyrazinoate]	6.25 (≈ 38.1 µM)	6.25 (≈ 38.1 µM)	100 (≈ 609 µM)	6.25 (≈ 38.1 µM)	≤ 3.12	≤ 3.12	3.12 (≈ 19 µM)	6.25 (≈ 38.1 µM)	6.25 (≈ 38.1 µM)	3.12 (≈ 19 µM)	3.12 (≈ 19 µM)	≤ 3.12	3.12 (≈ 19 µM)	6.25 (≈ 38.1 µM)	–	MIC ([2]; M. tb. BAK, pH 5.8): 3.12 mg/L (≈ 19 µM)
CN(C)CCOC(=O)c1cnccn1 [N,N-dimethyl-2-aminoethyl pyrazinoate]	–	–	–	–	–	–	–	–	–	–	–	–	–	–	–	in vitro activity against Mycobacterium tuberculosis H37RV [3]: active
CCCOC(=O)c1cnccn1 [n-Propyl Pyrazinoate]	12.5 (≈ 75.2 µM)	6.25 (≈ 37.6 µM)	> 200	≤ 3.12	≤ 3.12	≤ 3.12	≤ 3.12	≤ 3.12	6.25 (≈ 37.6 µM)	≤ 3.12	6.25 (≈ 37.6 µM)	≤ 3.12	≤ 3.12	–	≤ 3.12	–
Cc1ccc(OC(=O)c2cnccn2)cc1 [p-Tolyl Pyrazinoate]	12.5 (≈ 58.4 µM)	12.5 (≈ 58.4 µM)	25 (≈ 117 µM)	12.5 (≈ 58.4 µM)	12.5 (≈ 58.4 µM)	6.25 (≈ 29.2 µM)	–	25 (≈ 117 µM)	6.25 (≈ 29.2 µM)	25 (≈ 117 µM)	12.5 (≈ 58.4 µM)	6.25 (≈ 29.2 µM)	25 (≈ 117 µM)	25 (≈ 117 µM)	12.5 (≈ 58.4 µM)	MIC ([2]; M. tb. DOU, pH 5.8): 25 mg/L (≈ 117 µM)
NC(=O)c1cnccn1 [pyrazinamide]	–	–	> 200	–	–	–	–	–	–	–	–	–	–	–	–	activity against M. bovis (M. bovis): not active; activity against other mycobacteria (other mycobacteria): not active; activity against M. tuberculosis [4]: only active against Mycobacterium (M.) tuberculosis; hepatotoxicity [5]: hepatotoxicity
O=C(OCC(F)(F)F)c1cnccn1 [β, β, β-Trifluoroethyl Pyrazinoate]	100 (≈ 485 µM)	200 (≈ 970 µM)	200 (≈ 970 µM)	25 (≈ 121 µM)	12.5 (≈ 60.6 µM)	25 (≈ 121 µM)	100 (≈ 485 µM)	25 (≈ 121 µM)	12.5 (≈ 60.6 µM)	25 (≈ 121 µM)	50 (≈ 243 µM)	25 (≈ 121 µM)	25 (≈ 121 µM)	25 (≈ 121 µM)	25 (≈ 121 µM)	–
Isopropyl thiopyrazinoate	–	–	–	–	–	–	–	–	–	–	–	–	–	–	–	activity in a standardized mouse test (tuberculosis): exhibited activity
